In brackets after ≈: the same amount, converted by molar mass. Where a SMILES comes first, the peptide text is derived from it. Bridges are numbered along the chain shown (N, C = ends). [ ]: non-standard residue; d: D form. The star is where a group is joined. Tridecanoyl = CCCCCCCCCCCCC(=O)*; Undecanoyl = CCCCCCCCCCC(=O)*; dOrn = NCCC[C@@H](N)C(=O)O
Experiments:
S. aureus 4 = experiment: microbe, parasite or virus in culture; type: cell-based, Staphylococcus aureus; conditions: 4
From the text: (§1) The same MIC assay as in Example 6 was used to determine the antimicrobial susceptibility of Compound A, L-form (FIG. 15), and several variants. One variant was Compound A, D-form, with D-Lysine at position 7. Compound B is a variant in the fatty acid chain, with a fatty acid chain composition of C15H29O, and having D-Lys at position 7. Compound C is a variant in the fatty acid chain with a fatty acid chain composition of C11H21O, and having D-Lys at position 7. Variant D is a sequence variant with Phe at position 6 of the cyclic peptide, and having D-Lys at position 7. All variants were chemically synthesized.

S. aureus 8 = experiment: microbe, parasite or virus in culture; type: cell-based, Staphylococcus aureus; conditions: 8
From the text: as §1

S. aureus 14 = experiment: microbe, parasite or virus in culture; type: cell-based, Staphylococcus aureus; conditions: 14
From the text: as §1

S. aureus 10 = experiment: microbe, parasite or virus in culture; type: cell-based, Staphylococcus aureus; conditions: 10
From the text: as §1

S. aureus 6 = experiment: microbe, parasite or virus in culture; type: cell-based, Staphylococcus aureus; conditions: 6
From the text: as §1

S. aureus 19 = experiment: microbe, parasite or virus in culture; type: cell-based, Staphylococcus aureus; conditions: 19
From the text: as §1

S. aureus 2 = experiment: microbe, parasite or virus in culture; type: cell-based, Staphylococcus aureus; conditions: 2
From the text: as §1

S. aureus 12 = experiment: microbe, parasite or virus in culture; type: cell-based, Staphylococcus aureus; conditions: 12
From the text: as §1

E. faecalis ATCC 51575 = experiment: microbe, parasite or virus in culture; type: cell-based, Enterococcus faecalis; conditions: ATCC 51575
From the text: as §1

[1] = system: E. coli CVM 40132 (ctx-m-9); type: cell-based, Escherichia coli
From the text: as §1

E. coli CVM 15104 (shv3) = type: cell-based, Escherichia coli
From the text: as §1

[2] = system: E. coli CVM 40141 (imp-1); type: cell-based, Escherichia coli
From the text: as §1

[3] = system: E. coli CVM 40138 (LCR-1); type: cell-based, Escherichia coli
From the text: as §1

[4] = system: E. coli CVM 40130 (oxa-9); type: cell-based, Escherichia coli
From the text: as §1

[5] = system: E. coli CVM 35778 (ctx-m-2); type: cell-based, Escherichia coli
From the text: as §1

[6] = system: E. coli CVM 40127 (oxa-2); type: cell-based, Escherichia coli
From the text: as §1

[7] = system: E. coli CVM 40133 (ctx-m-14); type: cell-based, Escherichia coli
From the text: as §1

[8] = system: E. coli CVM 40131 (ctx-m-2); type: cell-based, Escherichia coli
From the text: as §1

E. coli CVM 15100 (mir1) = type: cell-based, Escherichia coli
From the text: as §1

[9] = system: E. coli CVM 40136 (tem 52b); type: cell-based, Escherichia coli
From the text: as §1

[10] = system: E. coli CVM 40147 (vim-2); type: cell-based, Escherichia coli
From the text: as §1

[11] = system: E. coli CVM 40134 (ctx-m-15); type: cell-based, Escherichia coli
From the text: as §1

E. coli CVM 15103 (tem2) = type: cell-based, Escherichia coli
From the text: as §1

[12] = system: E. coli CVM 40139 (fox-1); type: cell-based, Escherichia coli
From the text: as §1

E. coli CVM40148 (veb-1) = type: cell-based, Escherichia coli
From the text: as §1

[13] = system: E. coli CVM 40126 (oxa-1); type: cell-based, Escherichia coli
From the text: as §1

[14] = system: E. coli CVM 40129 (oxa-5); type: cell-based, Escherichia coli
From the text: as §1

E. coli CVM40146 (vim-1) = type: cell-based, Escherichia coli
From the text: as §1

[15] = system: E. coli CVM 40143 (act-1); type: cell-based, Escherichia coli
From the text: as §1

[16] = system: E. coli CVM 40137 (DHA-1); type: cell-based, Escherichia coli
From the text: as §1

[17] = system: E. coli CVM 40128 (oxa-7); type: cell-based, Escherichia coli
From the text: as §1

[18] = system: E. cloacae CVM 15101 (P99); type: cell-based, Enterobacter cloacae
From the text: as §1

E. faecium ATCC 700221 = experiment: microbe, parasite or virus in culture; type: cell-based; conditions: ATCC 700221
From the text: as §1

E. faecium ATCC 2320 = experiment: microbe, parasite or virus in culture; type: cell-based; conditions: ATCC 2320
From the text: as §1

E. faecium BAA-2318 = experiment: microbe, parasite or virus in culture; type: cell-based; conditions: BAA-2318
From the text: as §1

[19] = system: K. pneumonia CVM 40142 (ges-1); type: cell-based, Klebsiella pneumoniae
From the text: as §1

[20] = system: K. pneumonia CVM 15105 (shv5); type: cell-based, Klebsiella pneumoniae
From the text: as §1

[21] = system: K. pneumoniae CVM 15102 (shv5); type: cell-based, Klebsiella pneumoniae
From the text: as §1

[22] = system: K. pneumoniae CVM 9246 (shv18, oxa2); type: cell-based, Klebsiella pneumoniae
From the text: as §1

| SMILES | MIC (S. aureus 4) [µg/mL] | MIC (S. aureus 8) [µg/mL] | MIC (S. aureus 14) [µg/mL] | MIC (S. aureus 10) [µg/mL] | MIC (S. aureus 6) [µg/mL] | MIC (S. aureus 19) [µg/mL] | MIC (S. aureus 2) [µg/mL] | MIC (S. aureus 12) [µg/mL] | MIC (E. faecalis ATCC 51575) [µg/mL] | MIC [1] [µg/mL] | MIC (E. coli CVM 15104 (shv3)) [µg/mL] | MIC [2] [µg/mL] | MIC [3] [µg/mL] | MIC [4] [µg/mL] | MIC [5] [µg/mL] | MIC [6] [µg/mL] | MIC [7] [µg/mL] | MIC [8] [µg/mL] | MIC (E. coli CVM 15100 (mir1)) [µg/mL] | MIC [9] [µg/mL] | further results |
| --- | --- | --- | --- | --- | --- | --- | --- | --- | --- | --- | --- | --- | --- | --- | --- | --- | --- | --- | --- | --- | --- |
| CCCCCCCCCCC(=O)N[C@H](CCCN)C(=O)N[C@H](C(=O)N[C@@H]1C(=O)N[C@H](CCCN)C(=O)N[C@@H](CO)C(=O)N[C@@H](Cc2ccc(O)cc2)C(=O)N[C@H](CCCCN)C(=O)N[C@H](CO)C(=O)N[C@@H]([C@@H](C)CC)C(=O)N2CCC[C@H]2C(=O)N[C@@H]([C@@H](C)CC)C(=O)N2CCC[C@H]2C(=O)N[C@@H]([C@@H](C)CC)C(=O)O[C@@H]1C)C(C)C [Compound C] (Undecanoyl-[dOrn]VT[dOrn]SY[dK][dS]IPIPI; ester 3-C; N-terminus assumed) | 8 (≈ 5.01 µM) | 8 (≈ 5.01 µM) | 8 (≈ 5.01 µM) | 8 (≈ 5.01 µM) | 8 (≈ 5.01 µM) | 8 (≈ 5.01 µM) | 8 (≈ 5.01 µM) | 8 (≈ 5.01 µM) | 32 (≈ 20 µM) | 8 (≈ 5.01 µM) | 8 (≈ 5.01 µM) | 32 (≈ 20 µM) | 8 (≈ 5.01 µM) | 8 (≈ 5.01 µM) | 16 (≈ 10 µM) | 8 (≈ 5.01 µM) | 8 (≈ 5.01 µM) | 8 (≈ 5.01 µM) | 8 (≈ 5.01 µM) | 8 (≈ 5.01 µM) | MIC [10]: 16 µg/mL (≈ 10 µM); MIC [11]: 8 µg/mL (≈ 5.01 µM); MIC (E. coli CVM 15103 (tem2)): 8 µg/mL (≈ 5.01 µM); MIC [12]: 8 µg/mL (≈ 5.01 µM); MIC (E. coli CVM40148 (veb-1)): 8 µg/mL (≈ 5.01 µM); MIC [13]: 8 µg/mL (≈ 5.01 µM); MIC [14]: 8 µg/mL (≈ 5.01 µM); MIC (E. coli CVM40146 (vim-1)): 8 µg/mL (≈ 5.01 µM); MIC [15]: 8 µg/mL (≈ 5.01 µM); MIC [16]: 8 µg/mL (≈ 5.01 µM); MIC [17]: 8 µg/mL (≈ 5.01 µM); MIC [18]: 8 µg/mL (≈ 5.01 µM); MIC (E. faecium ATCC 700221): 8 µg/mL (≈ 5.01 µM); MIC (E. faecium ATCC 2320): 8 µg/mL (≈ 5.01 µM); MIC (E. faecium BAA-2318): 8 µg/mL (≈ 5.01 µM); MIC [19]: 8 µg/mL (≈ 5.01 µM); MIC [20]: 8 µg/mL (≈ 5.01 µM); MIC [21]: 8 µg/mL (≈ 5.01 µM); MIC [22]: 8 µg/mL (≈ 5.01 µM) |
| CCCCCCCCCCCCC(=O)N[C@H](CCCN)C(=O)N[C@H](C(=O)N[C@@H]1C(=O)N[C@H](CCCN)C(=O)N[C@@H](CO)C(=O)N[C@@H](Cc2ccc(O)cc2)C(=O)N[C@H](CCCCN)C(=O)N[C@H](CO)C(=O)N[C@@H]([C@@H](C)CC)C(=O)N2CCC[C@H]2C(=O)N[C@@H]([C@@H](C)CC)C(=O)N2CCC[C@H]2C(=O)N[C@@H]([C@@H](C)CC)C(=O)O[C@@H]1C)C(C)C [Compound A D-form] (Tridecanoyl-[dOrn]VT[dOrn]SY[dK][dS]IPIPI; ester 3-C) | 4 (≈ 2.46 µM) | 4 (≈ 2.46 µM) | 8 (≈ 4.93 µM) | 8 (≈ 4.93 µM) | 4 (≈ 2.46 µM) | 8 (≈ 4.93 µM) | 4 (≈ 2.46 µM) | 4 (≈ 2.46 µM) | 8 (≈ 4.93 µM) | 8 (≈ 4.93 µM) | 8 (≈ 4.93 µM) | 16 (≈ 9.85 µM) | 8 (≈ 4.93 µM) | 8 (≈ 4.93 µM) | 8 (≈ 4.93 µM) | 8 (≈ 4.93 µM) | 16 (≈ 9.85 µM) | 8 (≈ 4.93 µM) | 8 (≈ 4.93 µM) | 16 (≈ 9.85 µM) | MIC [10]: 16 µg/mL (≈ 9.85 µM); MIC [11]: 8 µg/mL (≈ 4.93 µM); MIC (E. coli CVM 15103 (tem2)): 8 µg/mL (≈ 4.93 µM); MIC [12]: 8 µg/mL (≈ 4.93 µM); MIC (E. coli CVM40148 (veb-1)): 8 µg/mL (≈ 4.93 µM); MIC [13]: 8 µg/mL (≈ 4.93 µM); MIC [14]: 8 µg/mL (≈ 4.93 µM); MIC (E. coli CVM40146 (vim-1)): 8 µg/mL (≈ 4.93 µM); MIC [15]: 8 µg/mL (≈ 4.93 µM); MIC [16]: 8 µg/mL (≈ 4.93 µM); MIC [17]: 8 µg/mL (≈ 4.93 µM); MIC [18]: 8 µg/mL (≈ 4.93 µM); MIC (E. faecium ATCC 700221): 8 µg/mL (≈ 4.93 µM); MIC (E. faecium ATCC 2320): 8 µg/mL (≈ 4.93 µM); MIC (E. faecium BAA-2318): 4 µg/mL (≈ 2.46 µM); MIC [19]: 8 µg/mL (≈ 4.93 µM); MIC [20]: 8 µg/mL (≈ 4.93 µM); MIC [21]: 8 µg/mL (≈ 4.93 µM); MIC [22]: 8 µg/mL (≈ 4.93 µM) |

— patent US10906940B2, “Antimicrobial peptides, pharmaceutical compositions, and methods of use thereof” (priority 2014, dated 2021)
